Experiment [1] relates to IFNγ induced ICAM-1 (CD54) up-regulation in A549 lung epithelial cells (JAK/Stat pathway). The experiment can be described thus: A549 Epithelial Line Stimulated with IFNγ (ICAM-1 surface expression, flow cytometry). Format: cell-based, human. An excerpt: The activity of the compounds of the invention may additionally be characterized by assaying the effect of the 2,4-pyrimidinediamine compounds described herein on A549 lung epithelial cells and U937 cells. A549 lung epithelial cells and U937 cells up-regulate ICAM-1 (CD54) surface expression in response to a variety of different stimuli. Therefore, using ICAM-1 expression as readout, test compound effects on different signaling pathways can be assessed in the same cell type. Stimulation with IL-1β through the IL-1β receptor activates the TRAF6/NFκB pathway resulting in up-regulation of ICAM-1. IFNγ induces ICAM-1 up-regulation through activation of the JAK1/JAK2 pathway. The up-regulation of ICAM-1 can be quantified by flow cytometry across a compound dose curve and EC50 values are calculated. Exemplary assays of this type are described in greater detail in Examples 5 and 6.
A549 lung epithelial cells up-regulate ICAM-1 (CD54) surface expression in response to a variety of different stimuli. Therefore, using ICAM-1 expression as readout, compound effects on different signaling pathways can be assessed in the same cell type. IFNγ up-regulates ICAM-1 through activation of the JAK/Stat pathway. In this example, the up-regulation of ICAM-1 by IFNγ was assessed.
The A549 lung epithelial carcinoma cell line originated from the American Type Culture Collection. Routine culturing was with F12K media (Mediatech Inc., Lenexa, Kans., Cat. No. 10-025-CV) with 10% fetal bovine serum, 100 I.U. penicillin and […] streptomycin (complete F12k media). Cells were incubated in a humidified atmosphere of 5% CO2 at 37° C. Prior to use in the assay, A549 cells were washed with PBS and trypsinized (Mediatech Inc., Cat. No. 25-052-CI) to lift the cells. The trypsin cell suspension was neutralized with complete F12K media and centrifuged to pellet the cells. The cell pellet was resuspended in complete F12K media at a concentration of 2.0×10^5/mL. Cells were seeded at 20,000 per well, 100 μL total volume, in a flat bottom tissue culture plate and allowed to adhere overnight.
On day two, A549 cells were pre-incubated with a 2,4-pyrimidinediamine test compound or DMSO (control) (Sigma-Aldrich, St. Louis, Mo., Catalog No. D2650) for 1 hour. The cells were then stimulated with IFNγ (75 ng/mL) (Peprotech Inc., Rocky Hill, N.J., Cat. No. 300-02) and allowed to incubate for 24 hours. The final test compound dose range was 30 μM to 14 nM in 200 μL F12K media containing 5% FBS, 0.3% DMSO.
On day three, the cell media was removed and the cells were washed with 200 μL PBS (phosphate buffered saline). Each well was trypsinized to dissociate the cells, then neutralized by addition of 200 μL complete F12K media. Cells were pelleted and stained with an APC conjugated mouse anti-human ICAM-1 (CD54) (BD Pharmingen, San Diego, Calif., Catalog #559771) antibody for 20 minutes at 4° C. Cells were washed with ice cold FACS buffer (PBS+2% FBS) and surface ICAM-1 expression was analyzed by flow cytometry. Detection was performed using a BD LSR I System Flow Cytometer, purchased from BD Biosciences of San Jose, Calif. Events were gated for live scatter and the geometric mean was calculated (Becton-Dickinson CellQuest software version 3.3, Franklin Lakes, N.J.). Geometric means were plotted against the compound concentration to generate a dose response curve.

In experiment [2] the test system is IFNγ induced ICAM-1 (CD54) up-regulation in U937 human monocytic cells (JAK/Stat pathway). The experiment can be described thus: U937 IFNγ ICAM1 FACS Assay. It counts as cell-based. Conditions: Table III Example 6, 10 ng/mL IFNγ, 18-24 hours. The gist of the method:
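Flow cytometry gave ICAM-1 (CD54) up-regulation as ICAM-APC geometric mean within the live-cell gate, alongside % viable cells. Human monocytic U937 cells received 3-fold serial compound dilutions for 30 min at 37 °C, followed by IFNγ stimulation lasting 18–24 h. Dose curves yielded EC50s.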

Where [3] appears, read: Homo sapiens, A549, Table III Example 5.

IC50 data for 21 molecules are collected here from patent publication US9481654B2, “Compositions and methods for inhibition of the JAK pathway” (Rigel Pharmaceuticals, Inc., priority 2006, dated 2016).

In the case of `C#CCNS(=O)(=O)Cc1ccc(Nc2nc(Nc3cccc(S(N)(=O)=O)c3)ncc2F)cc1` [Compound I-4, N2-(3-Aminosulfonylphenyl)-5-fluoro-N4-[4-(prop-2-ynylaminosulfonylmethyl)phenyl]-2,4-pyrimidinediamine], the IC50 was 18200 nM in experiment [1] (setting [3]) and 908 nM in experiment [2] (Homo sapiens, U-937).
For the molecule `C#CCNS(=O)(=O)Cc1ccc(Nc2nc(Nc3ccc(C)c(S(N)(=O)=O)c3)ncc2F)cc1` [Compound I-5, N2-(3-Aminosulfonyl-4-methylphenyl)-5-fluoro-N4-[4-(prop-2-ynylaminosulfonylmethyl)phenyl]-2,4-pyrimidinediamine], the IC50 came out at 56600 nM in experiment [1] (setting [3]) and 710 nM in experiment [2] (Homo sapiens, U-937).
Consider `CCS(=O)(=O)NCc1ccc(Nc2nc(Nc3ccc(C)c(S(N)(=O)=O)c3)ncc2F)cc1` [Compound I-10, N2-(3-aminosulfonyl-4-methyl)phenyl-N4-(4-ethylsulfonylaminomethyl)phenyl-5-fluoro-2,4-pyrimidinediamine], for which the half-maximal inhibitory concentration (IC50) in experiment [1] (Table III Example 5) was 29500 nM; in experiment [2], 477 nM.
Turning to `CCS(=O)(=O)NCc1cccc(Nc2nc(Nc3cccc(S(N)(=O)=O)c3)ncc2F)c1` [Compound I-12, N2-(3-aminosulfonyl)phenyl-N4-(3-ethylsulfonylaminomethyl)phenyl-5-fluoro-2,4-pyrimidinediamine], the results for the IC50 in experiment [1] (Table III Example 5) and in experiment [2] were 4570 nM and 1580 nM, respectively.
The like results for `CCS(=O)(=O)NCc1cccc(Nc2nc(Nc3ccc(C)c(S(N)(=O)=O)c3)ncc2F)c1` [Compound I-13, N2-(3-aminosulfonyl-4-methyl)phenyl-N4-(3-ethylsulfonylaminomethyl)phenyl-5-fluoro-2,4-pyrimidinediamine] were, in that order, 3630 nM and 536 nM.
For the molecule `CCS(=O)(=O)NCCc1ccc(Nc2nc(Nc3ccc(C)c(S(N)(=O)=O)c3)ncc2F)cc1` [Compound I-16, N2-(3-aminosulfonyl-4-methyl)phenyl-N4-[4-(2-ethylsulfonylamino)ethyl]phenyl-5-fluoro-2,4-pyrimidinediamine], the IC50 was found to be 9010 nM in experiment [1] (Table III Example 5) and 2280 nM in experiment [2].
The like results for `CCS(=O)(=O)NCc1ccc(Nc2nc(Nc3cccc(S(N)(=O)=O)c3)ncc2C)cc1` [Compound I-21, N2-(3-aminosulfonyl)phenyl-N4-(4-ethylsulfonylaminomethyl)phenyl-5-methyl-2,4-pyrimidinediamine] were, in that order, 2490 nM and 362 nM.
`CCS(=O)(=O)N[C@@H](C)c1ccc(Nc2nc(Nc3cccc(S(N)(=O)=O)c3)ncc2F)cc1` [Compound I-27, N2-(3-aminosulfonyl)phenyl-N4-[4-(1S-ethylsulfonylamino)ethyl]phenyl-5-fluoro-2,4-pyrimidinediamine]: the IC50 in experiment [1] (Table III Example 5) turned out to be 5840 nM; in experiment [2], 1240 nM.
On to `CCS(=O)(=O)N[C@H](C)c1ccc(Nc2nc(Nc3cccc(S(N)(=O)=O)c3)ncc2F)cc1` [Compound I-30, N2-(3-aminosulfonyl)phenyl-N4-[4-(1R-ethylsulfonylamino)ethyl]phenyl-5-fluoro-2,4-pyrimidinediamine], for which the IC50 turned out to be 6100 nM in experiment [1] (Table III Example 5) and 1160 nM in experiment [2].
Regarding `Cc1ccc(Nc2ncc(F)c(Nc3cccc(CNS(=O)(=O)C4CC4)c3)n2)cc1S(N)(=O)=O` [Compound I-34, N2-(3-aminosulfonyl-4-methyl)phenyl-N4-(3-cyclopropylsulfonylaminomethyl)phenyl-5-fluoro-2,4-pyrimidinediamine], the IC50 is 5700 nM in experiment [1] (Table III Example 5) and 1190 nM in experiment [2].
`Cc1ccc(Nc2ncc(F)c(Nc3ccc(CNS(=O)(=O)c4cccs4)cc3)n2)cc1S(N)(=O)=O` [Compound I-37, N2-(3-aminosulfonyl-4-methyl)phenyl-5-fluoro-N4-[4-(thiophen-2-yl)sulfonylaminomethyl]phenyl-2,4-pyrimidinediamine]: the IC50 in experiment [1] (Table III Example 5) was 27700 nM; in experiment [2], 375 nM.
Regarding `CCS(=O)(=O)NCCc1ccc(Nc2nc(Nc3cccc(S(N)(=O)=O)c3)ncc2C)cc1` [Compound I-39, N2-(3-aminosulfonyl)phenyl-N4-[4-(2-ethylsulfonylamino)ethyl]phenyl-5-methyl-2,4-pyrimidinediamine], the IC50 in experiment [1] (Table III Example 5) amounted to 3750 nM; in experiment [2] it was 604 nM.
For `CCS(=O)(=O)NCCc1ccc(Nc2nc(Nc3ccc(C)c(S(N)(=O)=O)c3)ncc2C)cc1` [Compound I-40, N2-(3-aminosulfonyl-4-methyl)phenyl-N4-[4-(2-ethylsulfonylamino)ethyl]phenyl-5-methyl-2,4-pyrimidinediamine], the IC50 stood at 3490 nM in experiment [1] (Table III Example 5) and 341 nM in experiment [2].
On to `Cc1ccc(Nc2ncc(C)c(Nc3ccc(CNS(=O)(=O)C4CC4)cc3)n2)cc1S(N)(=O)=O` [Compound I-47, N2-(3-aminosulfonyl-4-methyl)phenyl-N4-(4-cyclopropylsulfonylaminomethyl)phenyl-5-methyl-2,4-pyrimidinediamine], for which the values for the IC50 in experiment [1] (Table III Example 5) and in experiment [2] were 2890 nM and 104 nM, respectively.
Take `NS(=O)(=O)c1ccc(Nc2ncc(F)c(Nc3ccc(CNS(=O)(=O)CC(F)(F)F)cc3)n2)cc1` [Compound I-48, N2-(4-aminosulfonyl)phenyl-5-fluoro-N4-(4-trifluoroethylsulfonylaminomethyl)phenyl-2,4-pyrimidinediamine]: the IC50 in experiment [1] (Table III Example 5) came out at 29900 nM; in experiment [2], 3760 nM.
Regarding `NS(=O)(=O)c1cccc(Nc2ncc(F)c(Nc3ccc(CNS(=O)(=O)CC(F)(F)F)cc3)n2)c1` [Compound I-49, N2-(3-aminosulfonyl)phenyl-5-fluoro-N4-(4-trifluoroethylsulfonylaminomethyl)phenyl-2,4-pyrimidinediamine], the IC50 is 78900 nM in experiment [1] (Table III Example 5) and 836 nM in experiment [2].
Consider `Cc1ccc(Nc2ncc(F)c(Nc3ccc(CNS(=O)(=O)CC(F)(F)F)cc3)n2)cc1S(N)(=O)=O` [Compound I-50, N2-(3-aminosulfonyl-4-methyl)phenyl-5-fluoro-N4-(4-trifluoroethylsulfonylaminomethyl)phenyl-2,4-pyrimidinediamine], for which the results for the IC50 in experiment [1] (Table III Example 5) and in experiment [2] were 9350 nM and 548 nM, respectively.
On to `Cc1cnc(Nc2cccc(S(N)(=O)=O)c2)nc1Nc1cccc(CNS(=O)(=O)C2CC2)c1` [Compound I-51, N2-(3-aminosulfonyl)phenyl-N4-(3-cyclopropylsulfonylaminomethyl)phenyl-5-methyl-2,4-pyrimidinediamine], for which the IC50 in experiment [1] (Table III Example 5) was 2800 nM; in experiment [2], 324 nM.
The matching figures for `Cc1ccc(Nc2ncc(C)c(Nc3cccc(CNS(=O)(=O)C4CC4)c3)n2)cc1S(N)(=O)=O` [Compound I-52, N2-(3-aminosulfonyl-4-methyl)phenyl-N4-(3-cyclopropylsulfonylaminomethyl)phenyl-5-methyl-2,4-pyrimidinediamine]: 2550 nM and 203 nM.
On to `Cc1cnc(Nc2cccc(S(N)(=O)=O)c2)nc1Nc1ccc(CCNS(=O)(=O)C2CC2)cc1` [Compound I-54, N2-(3-aminosulfonyl)phenyl-N4-[4-(2-cyclopropylsulfonylamino)ethyl]phenyl-5-methyl-2,4-pyrimidinediamine], for which the results for the IC50 in experiment [1] (Table III Example 5) and in experiment [2] were 4690 nM and 389 nM, respectively.
`Cc1ccc(Nc2ncc(C)c(Nc3ccc(CCNS(=O)(=O)C4CC4)cc3)n2)cc1S(N)(=O)=O` [Compound I-55, N2-(3-aminosulfonyl-4-methyl)phenyl-N4-[4-(2-cyclopropylsulfonylamino)ethyl]phenyl-5-methyl-2,4-pyrimidinediamine]: the IC50 in experiment [1] (Table III Example 5) turned out to be 3880 nM; in experiment [2], 360 nM.
